# Test results published in EPA's ToxValDB 9.5 (doi:10.2903/j.efsa.2008.187r).
# Several values for one entry are separate records, joined by “and”; a condition that tells them apart may be missing. Equal values may be shown once.
# Key:
# Colinus virginianus = details: oral; for NOEL: short-term
# Coturnix japonica = details: acute; oral; mortality
# Apis mellifera = details: acute, mortality
# Daphnia magna = details: chronic/long-term; duration: 21 days; reproduction
# Tagia sp. = details: chronic/long-term; duration: 8 weeks
Structure (SMILES),NOEL (Anas platyrhynchos; reproductive),"NOEL (Anas platyrhynchos; short-term, oral, feed)","LD50 (Colinus virginianus; acute, mortality)",NOEL (Colinus virginianus; diet),LD50 (Coturnix japonica),LD50 (Apis mellifera; dermal),"LD50 (Apis mellifera; oral, unspecified)","LC50 (Colinus virginianus; acute, diet, mortality)",NOEC (Daphnia magna),NOEC (Tagia sp.)
O.O.[Cu] [Copper hydroxide (Cu(OH)2)],7.05 mg/kg-day,216 mg/kg-day and 191 mg/kg-day,223 mg/kg,124 mg/kg-day and 132 mg/kg-day,556 mg/kg,,,,,
[Cu+].[Cu+].[O-2] [Cuprous oxide],,,,31.9 mg/kg-day,1180 mg/kg,,,,,
[Cl-].[Cu+2].[Cu+2].[OH-].[OH-].[OH-] [Dicopper chloride trihydroxide],,,511 mg/kg,,,44.3 µg/piece,12.1 µg/piece,333 mg/kg-day,0.0076 mg/L,< 15 mg/kg
